Source: US10286034B2, “Uses of bremelanotide in therapy for female sexual dysfunction” (Palatin Technologies, Inc., priority 2012, dated 2019)

Columns and labels:
[1] = test system: premenopausal females with FSAD and/or HSDD; assay: Example 1: placebo-controlled at-home trial of subcutaneous bremelanotide, efficacy (SSEs, FSFI, FSDS-DAO); type: in vivo, human
Protocol: A multi-centered, placebo-controlled, randomized, parallel group trial with fixed dose levels and designed to identify appropriate doses of bremelanotide administered by subcutaneous injection in premenopausal females with FSAD and/or HSDD, under the conditions of home use, was conducted. […] Subjects who continued to qualify for the trial then received 2 single in-clinic doses of randomized treatment (double-blind; approximately one week apart), followed by 12 weeks of double-blind treatment at home (subjects self-administered treatment as needed). Subjects were randomized (1:1:1:1) to one of four study treatment groups (placebo or doses with 0.75, 1.25, or 1.75 mg net weight bremelanotide). Randomization occurred immediately prior to the first in-clinic dose of double-blind treatment. Study drug and placebo was provided as pre-filled syringes in 0.3 mL volume, with subjects instructed on self-administration into the anterior thigh or abdomen. Enrolled subjects were premenopausal women who met the diagnostic criteria for […], or mixed […], utilizing a diagnostic screening guide including categorization of the sexual dysfunction as both acquired (vs. lifelong) and generalized (vs. situational). Subjects enrolled had previously been sexually “functional;” that is, experienced sexual arousal during sexual activity and/or a normal level of desire at some point in the past for a period of at least 2 years. […] Enrolled subjects were provided with an electronic diary system (eDiary) with instructions to complete an FSEP-R questionnaire with each sexual encounter. At selected in-clinic visits, subjects completed other assessment questionnaires, including […]-DAO, […] and WITS-9. In addition, various vital sign measures were conducted and blood and urine samples collected at selected in-clinic visits. […] The measurement period was defined as the number of events during the last four weeks of treatment minus the number of events during the baseline period, with outcomes reported for pooled results of women taking the two highest bremelanotide dose levels versus placebo. […] The FSFI is a 19-item questionnaire which provides for an additional measurement of changes over a longer recall period. • FSFI total score improvement (mean change of 3.55 vs. 1.88, p=0.0017) • Reduced associated distress related to sexual dysfunction, as measured by the Female Sexual Distress Scale-DAO (FSDS-DAO). The FSDS-DAO 15-item questionnaire is designed to assess and quantify the change in personal distress associated with […]-DAO total score improvement (mean change of -11.1 vs. -6.8, p=0.036).

[2] = Pharmacokinetics of subcutaneous administration in healthy adult males; type: in vivo, human; conditions: after subcutaneous administration
From the text: Results of Tmax values were compared between subcutaneous administration (SC) and intranasal (IN) administration of various doses of bremelanotide, as shown in FIG. 1.

[3] = test system: women diagnosed with sexual arousal disorder; conditions: single intranasal dose of 20 mg, cited from earlier work
[4] = pooled 1.25 mg and 1.75 mg doses, baseline to end of study

For `CCCC[C@H](NC(C)=O)C(=O)N[C@H]1CC(=O)NCCCC[C@@H](C(=O)O)NC(=O)[C@H](Cc2c[nH]c3ccccc23)NC(=O)[C@H](CCCNC(=N)N)NC(=O)[C@@H](Cc2ccccc2)NC(=O)[C@H](Cc2c[nH]cn2)NC1=O` [bremelanotide, Ac-Nle-cyclo(-Asp-His-D-Phe-Arg-Trp-Lys)-OH], the “efficacy on all key endpoints in HSDD-only and mixed HSDD/FSAD subgroups” value ([1]; 1.25 mg, 1.75 mg, and/or 1.25/1.75 mg pooled, exploratory analyses) was “statistically significant efficacy or a clinically significant trend versus placebo”, the “Satisfying Sexual Events (SSEs), mean at baseline” value ([1]; pooled 1.25 mg and 1.75 mg doses) was 1.6 and the “FSDS-DAO total score improvement, mean change” value [1, 4] was −11.1. The “FSFI total score improvement, mean change” value [1, 4] was 3.55, the “increase in SSEs” value [1, 4] was 50% and the “Satisfying Sexual Events (SSEs), mean at end of study” value ([1]; pooled 1.25 mg and 1.75 mg doses, last four weeks of treatment) was 2.4. The “most optimal dose for efficacy” value ([1]; subcutaneous) was 1.75 mg, the “women with end-of-study FSFI and FSDS-DAO total score levels above 26.5 and 18” value ([1]; versus placebo, exploratory analysis) was “higher percentage of women” and the “time to quantifiable concentrations in plasma” value [2] was no more than 15 min. The “vaginal pulse amplitude measures” value ([3]; compared to placebo) was “without statistically relevant differences, compared to placebo” and the “reported feelings of sexual arousal” value [3] was “statistically relevant reported feelings of sexual arousal”.
